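Five compound concentrations were applied to cells in 96-well plates for 48 hours; endpoints were derived by simple linear interpolation of the resulting dose-response curve. At the GI50, growth is halved. TGI is the concentration that stops growth completely.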
What was measured:
Experiment in all cases: NCI tumour cell line growth inhibition, 48 h
[1] = system: SK-OV-3 ovarian
[2] = system: DMS 273 small cell lung
[3] = system: M19-MEL melanoma
[4] = system: RXF-631 renal
[5] = system: SNB-78 CNS
[6] = system: XF 498 CNS
[7] = system: DLD-1 colon
[8] = system: DMS 114 small cell lung
[9] = system: HOP-18 NSCLC
[10] = system: KM20L2 colon
[11] = system: P388 leukemia
[12] = system: P388/ADR leukemia
[13] = system: SN12K1 renal
[14] = system: LXFL 529 NSCLC

O=C(C(Cl)=C(N1CCOCC1)N1CCOCC1)C(Cl)Cl
TGI [1]: > 100 µM

c1c2c(cc(-n3nnc4c3CCCCCC4)c1-n1nnc3c1CCCCCC3)CCCCCC2
TGI [2]: 12.3 µM
TGI [3]: 25.5 µM
TGI [4]: 34.8 µM
TGI [1]: 34.5 µM
TGI [5]: 39.4 µM
TGI [6]: 9.62 µM

CN(C)CCNC(=O)c1cccc2nc(-c3ccccc3)oc12
TGI [7]: > 100 µM
TGI [8]: > 100 µM
TGI [9]: > 100 µM
TGI [10]: > 100 µM
TGI [3]: 99.5 µM
TGI [11]: 20.3 µM
TGI [12]: > 64.3 µM
TGI [1]: > 100 µM
TGI [13]: > 75.5 µM
TGI [5]: > 100 µM
TGI [6]: > 91.9 µM

O=C1CSC2=NC3=C(COC/C3=C\c3ccc(Br)cc3)C(c3ccc(Br)cc3)N12 (stereo not given)
TGI [1]: > 100 µM

Nc1nn2c(=O)c3ccccc3nc2s1
TGI [1]: > 100 µM

CCOC(=O)c1nnsc1NN
TGI [1]: > 100 µM

O=c1[nH]c(Nc2cccc(CO)c2)nc2nc[nH]c12
TGI [1]: > 100 µM

CN(C)CC1CCC(CN(C)C)C1=O (stereo not given)
TGI [8]: 11.8 µM
TGI [2]: 36.7 µM
TGI [9]: 33.2 µM
TGI [10]: 38 µM
TGI [14]: 2.96 µM
TGI [3]: 7.96 µM
TGI [1]: 30.6 µM
TGI [5]: 17.2 µM
TGI [6]: 10.3 µM

C[n+]1c(-c2ccc(/C=C/C=N\NC(=O)c3ccc(C(=O)N/N=C\C=C\c4ccc(-c5cn6ccccc6[n+]5C)cc4)cc3)cc2)cn2ccccc21
TGI [1]: > 100 µM

CC(=O)OCc1c(O)c2c(c(O)c1COC(C)=O)C(=O)C=CC2=O
TGI [8]: 25.4 µM
TGI [2]: 34.3 µM
TGI [9]: 35.8 µM
TGI [10]: 32.7 µM
TGI [14]: 10.4 µM
TGI [3]: 3.54 µM
TGI [1]: 33.4 µM
TGI [5]: 28 µM

CC(C)(C)c1cc(C(=O)/C=C/c2ccc3c(c2)OCO3)cc(C(C)(C)C)c1O
TGI [1]: > 100 µM

CCOC(=O)c1cn2c(n1)sc1cc(Cl)cc(Cl)c12
TGI [1]: > 100 µM

CO[C@]12C[C@H](CNC(=O)c3ccc[nH]3)O[C@H]1NC(=O)N2
TGI [1]: > 100 µM

CCCCCCCCCc1nn2c(Cc3ccccc3)nnc2s1
TGI [1]: 66.7 µM

O=c1cc(-c2ccccc2)oc2c(-c3cc(Cl)cc4c(=O)cc(-c5ccccc5)oc34)cc(Cl)cc12
TGI [1]: 85.2 µM

C=C1c2nc3ccccc3n2C=C(c2ccc(Cl)cc2)N1c1ccc(OC)cc1
TGI [1]: 23.7 µM

N#Cc1c(-c2ccccc2)cc(-c2ccc(Cl)cc2)[nH]c1=S
TGI [1]: 77.6 µM

COc1ccc(NC(=S)NC(=O)c2ccc3c(c2)Sc2ccccc2O3)c([N+](=O)[O-])c1
TGI [1]: 98.3 µM

COc1cc(/C=C/C=C2\CC/C(=C\C=C\c3ccc(O)c(OC)c3)C2=O)ccc1O
TGI [1]: > 100 µM

Cn1c2ccccc2c(=O)c2c(O)cc3c(c21)C=CC1(CCCCC1)O3
TGI [1]: > 10 µM

CN(C)CCC(=O)/C=C\c1ccccc1
TGI [7]: 31.8 µM
TGI [8]: 33.7 µM
TGI [2]: 33.7 µM
TGI [9]: 43.5 µM
TGI [10]: 86.1 µM
TGI [14]: 26.9 µM
TGI [3]: 37.4 µM
TGI [4]: 60.4 µM
TGI [5]: 37.6 µM
TGI [6]: 28.4 µM

O=c1[nH]c(=O)n(C2CC(O)C(CO)O2)cc1OCc1ccccc1 (stereo not given)
TGI [1]: > 100 µM

CCOC(=O)C#Cc1ccccc1
TGI [1]: 89.6 µM

COc1cc2c(cc1OC)-c1cc3ccccc3c(=O)n1CC2
TGI [1]: 74.5 µM

NS(=O)(=O)c1cccc(NC(=S)NC(=O)Nc2ccc(Cl)c(Cl)c2)c1
TGI [1]: 54.1 µM

CCCCn1c(-c2ccc([N+](=O)[O-])cc2)cs/c1=N/N=C1\C(=O)Nc2ccc(Br)cc21
TGI [1]: 48.8 µM

COc1ccc(CN2C3CC2CN(c2ccc(-c4cc(OCC(C)(C)O)cn5ncc(C#N)c45)cn2)C3)cn1
GI50 [1]: 5.64 µM
TGI [1]: > 100 µM

CO[C@@H]1O[C@H](C(=O)c2ccccc2)[C@H]2OC(C)(C)O[C@@H]12
TGI [1]: > 100 µM

CC(C)OC(=O)OCSc1ccccc1N=Cc1cccc([N+](=O)[O-])c1
TGI [1]: > 10 µM

CC1(C)[C@H]2CC[C@@]13C(=O)N1C(=O)O[C@@H]([C@H]1Cl)C(Cl)(COCc1ccccc1)C(=O)OCCO[C@H]3C2 (stereo not given in full)
TGI [1]: > 100 µM

COc1ccc(-c2cc(-c3ccccc3)[nH]c(=S)c2C#N)cc1
TGI [1]: 93.6 µM

Cc1c2c(OCC3CCCCO3)nn(C)c(=O)c2c(C)n1-c1ccccc1 (stereo not given)
TGI [1]: 34.8 µM

S=c1cc(-c2ccc3c(c2)OCO3)s[nH]1
TGI [1]: > 100 µM

C[C@H]1SC(c2ccc(Cl)cc2Cl)N(NC(=O)c2ccncc2)C1=O (stereo not given in full)
TGI [1]: > 100 µM

Cc1cnc2c(c1)C(=O)C1=C(C2=O)C2OC(=O)CC2OC1(C)C (stereo not given)
TGI [1]: 2.77 µM

COc1c(O)c2c(=O)cc(OC)c3c4c(OC)cc(=O)c5c(O)c(OC)c6c(c(c1C(C(C)O)C6C(C)O)c23)c54 (stereo not given)
TGI [1]: 8.64 µM

C\C(=N/N=C1/C(=C\N(C)C)C(=O)NC(=O)N1C)c1ccc(Cl)cc1
TGI [1]: > 100 µM

COc1nc(C#CC(C)(C)C)nc(OC)n1
TGI [1]: > 100 µM

COC(=O)C1=Nc2c(C)nn(-c3ccccc3)c2N=C(c2ccccc2)C1
TGI [1]: > 10 µM

O=[N+]([O-])c1ccc2c(c1)C1=NN(c3ccccc3)C(c3ccccc3Br)C1CCC2 (stereo not given)
TGI [1]: > 50 µM

CCC(C(=O)C(=O)OC)P1(=O)OC(C)(C)CN1C(C)(C)C (stereo not given)
TGI [1]: > 100 µM

COc1cc2c(cc1Cc1c(F)cccc1Cl)nc(-c1c(F)cccc1Cl)n2Cc1c(F)cccc1Cl
TGI [1]: 70 µM

CCOC(=O)/C(O)=C1\C(=O)N(C)C(=O)C1c1cccc(OC)c1 (stereo not given)
TGI [7]: > 100 µM
TGI [8]: > 100 µM
TGI [2]: > 100 µM
TGI [9]: > 100 µM
TGI [10]: > 100 µM
TGI [3]: > 100 µM
TGI [11]: > 100 µM
TGI [12]: > 100 µM
TGI [1]: > 100 µM
TGI [13]: > 100 µM
TGI [5]: > 100 µM
TGI [6]: > 100 µM

O=C(Nc1noc(-c2ccccc2)n1)c1ccccc1CNc1noc(-c2ccccc2)n1
TGI [1]: > 100 µM

CC(=O)OC1CCC2C3CCc4c(C)ccc(OS(=O)(=O)c5ccccc5)c4C3CCC12C (stereo not given)
TGI [1]: > 100 µM

C1=C\SS/C=C\SS/1
TGI [1]: > 100 µM

O=c1cc(-c2cc(O)c(O)c(-c3c(O)cc4oc(-c5ccc(O)c(O)c5)cc(=O)c4c3O)c2)oc2cc(O)cc(O)c12
TGI [1]: > 25 µM

N#Cc1nc(NC(=O)c2ccccc2C(=O)O)c(C#N)[nH]1
TGI [1]: > 100 µM

NC(=O)N/N=C1\CC2C3CC4C2C4C13 (stereo not given)
TGI [1]: > 100 µM

Oc1[nH]c2ccccc2c1N=NC(=S)Nc1ccc(Cl)cc1
TGI [1]: > 100 µM

CC(=O)c1ccc2c(c1)CC1(C2)Cc2ccccc2C1=O (stereo not given)
TGI [1]: > 100 µM

COC1=C(C)C(=O)c2c(c(COC(N)=O)c3n2CC(OC(C)=O)C3OC(C)=O)C1=O (stereo not given)
TGI [1]: 1.57 µM

[O-]/[N+](=C\c1ccccc1OC(=S)S)c1ccc(Cl)cc1
TGI [1]: > 100 µM

CC(C(=O)O)C(C)(O)C(=O)O (stereo not given)
TGI [1]: > 100 µM

CCOP(=O)(/C=C\n1ccc(N)nc1=O)OCC
TGI [1]: > 100 µM

COc1ccc(CC2COc3cc(O)cc(O)c3C2=O)cc1O (stereo not given)
TGI [1]: 38.6 µM

C#CCN(Cc1ccc2nc(OC)c(OC)nc2c1)c1cc(OC)c(OC)c(OC)c1
TGI [1]: > 100 µM

OCc1ccc2c(c1)CC1(Cc3ccc(/C=N/O)cc3C1)C2 (stereo not given)
TGI [1]: > 100 µM

CCCSc1nc(-c2ccc(OC)cc2)c(C#N)c(=O)n1C1OC(COC(C)=O)C(OC(C)=O)C(OC(C)=O)C1OC(C)=O (stereo not given)
TGI [8]: > 100 µM
TGI [10]: > 100 µM
TGI [14]: > 100 µM
TGI [3]: > 100 µM
TGI [1]: > 100 µM
TGI [5]: > 100 µM

COC(=O)/C(C#N)=C(/NCCN)Nc1ccccc1
TGI [1]: > 100 µM

C=C(CN(C)C)C(=O)c1ccccc1[N+](=O)[O-]
TGI [7]: 29.5 µM
TGI [8]: 39.1 µM
TGI [2]: 33.7 µM
TGI [9]: 32.7 µM
TGI [10]: > 54.2 µM
TGI [14]: 30.3 µM
TGI [3]: 32 µM
TGI [4]: 34.4 µM
TGI [1]: > 86.8 µM
TGI [5]: 71.4 µM
TGI [6]: 31.2 µM

CCOC(=O)/C=C(\C(=O)OCC)n1ccc(=O)n(Cc2cn(COCCOC(C)=O)nn2)c1=O
TGI [1]: > 100 µM

N#Cc1nc(C2CCC2)oc1N
TGI [1]: > 100 µM

CC(=O)c1cnc2oc3ccc(O)cc3c2c1-c1ccccc1
TGI [1]: 45.4 µM

From PubChem BioAssay (NCI)
